Assay results published in paper PMC6207720, “Identification and antitumor activity of a novel inhibitor of the NIMA-related kinase NEK6” (Scientific Reports, 2018).
Where two headings read alike, the source gives them in different places. One block for each compound: values may come before it.

Key:
NEK6 [1] = molecular target: T1, NEK6 (Homo sapiens, UniProt Q9HC98); assay: LANCE-Ultra NEK6 kinase assay; type: biochemical; details: 100 µM ATP
T1 construct: purchased Carna 05-130
Method: The twenty-five compounds resulting from virtual screening were firstly tested for the ability to inhibit the enzymatic activity of NEK6 at a single concentration of 30 µM, using LANCE technology. Quercetin, able to inhibit a broad panel of kinase, was used as positive control of inhibition[12],[30]. This initial screening allowed the identification of two compounds determining >70% NEK6 inhibition at 30 µM, i.e. compound 8 (6-hydroxy-4-methyl-2-oxo-5-[(5-phenyl (2-furyl)) methylene] pyridine-3-carbonitrile), and 21 (6-amino-2-phenyl-5,7,9-triazatetracyclo[8.7.0.0^3,^8 0^11,^16]heptadeca-1(10),3(8),6,11,13,15 hexaene-4,17-dione) (Fig. 4). […] The possible binding mode of compound 8 in the ATP-binding site of NEK6 as well as nonbonded interactions across the complex interface are shown in Fig. 6. Compound 8 may use its phenyl ring and furyl ring to form hydrophobic Pi-alkyl interactions with Ala72 (strand β3), Ala125 (hinge region) and Val59 (strand β2) of the ATP binding site (Fig. 6B). […] This is particulary relevant when considering that C–H···O hydrogen bonds play an important role in the ligand-binding process[33]–[35].
Compounds (i.e. 1 to 25) (Molport, Riga, LV-1011, Latvia) were dissolved in DMSO 100% as 10 mM stock and stored at −20 C. Activity of the compounds as NEK6 inhibitors was tested using LANCE NEK6 Ultra Kinase Assays protocol (U-TRF #25 technical note, PerkinElmer, Monza, MB). Compounds were first tested at 30 µM and incubated with 4 nM NEK6 (Carna, Chuo-ku, Kobe, Japan, # 05-130), 50 nM ULight-p70 S6K Peptide (PerkinElmer # TRF0126) and 100 μM ATP (Sigma-Aldrich, Saint Louis, U.S.A, # A2383) at room temperature. Kinase reactions were terminated after 90 minutes by the addition of EDTA and the signal was read with the Enspire plate reader (PerkinElmer) in TR-FRET mode (excitation at 320 nm and emission at 665 nm) after 60 minutes. Inhibition of NEK6 activity was calculated as percentage with respect to the control sample (100% of activity). Quercetin was used as positive control (Molport). […] For each compound the dose inhibiting 50% of NEK6 activity (IC50) was calculated using the GraphPad Prism 5.0 Software (San Diego, CA, USA).

NEK6 [2] = molecular target: T1, NEK6; assay: Off-chip Mobility Shift Assay (MSA), NEK6; type: biochemical; details: CARNA Biosciences Study CBS170097, ATP 75 µM
Method: Therefore, we decided to evaluate the selectivity of compound 8 against a panel of NEK kinases at 10 µM, using the technique of Off-chip Mobility shift assay. This concentration was chosen according to the guidelines proposed by Knight and Shokat, since the probability of off-target effects increases dramatically above 10 µM[36]. Furthermore, ATP concentration was set to approximate the Km,ATP for each kinase, so that the resulting selectivity profile directly reflects the intrinsic affinities of the inhibitor[37]. […] A major consequence of this substitution may be the redistribution of surface charges at the flexible activation loop resulting in an altered electrostatic potential and ability of NEK6 kinase to interact with other molecules.
The inhibitory activity of compounds 8 and 21 on NEK6 was also verified with MSA technique (Off-chip Mobility shift assay) (CARNA Biosciences Study ID: CBS170097, CARNA Biosciences, Kobe). […] PKR Inhibitor was used as positive control. For profiling study against NEK kinases (i.e. NEK1, NEK2, NEK6, NEK7, NEK9) (CARNA Biosciences Study ID: CBS170098), 8 was tested at 10 μM and ATP concentration approximating Km for each kinase. Assay condition for kinases are available on “Kinase profiling book” downloading by www.carnabio.com (https://www.carnabio.com/output/pdf/ProfilingProfilingBook_en.pdf).

PEO1 (ovary) = assay: Cell-based cytotoxicity assay (ATPlite), PEO1; design: species or system human; details: 72 h
Text: The following human carcinoma cell lines were used for the study: MDA-MB-231 and MCF-7 (breast cancer; ATCC, Sesto San Giovanni, MI), PEO1 and COV318 (ovarian cancer; ECACC, Salisbury, UK and ATCC), HCT-15 and SW948 (colon cancer; Public Health England, Salisbury, UK and ATCC), NCI-H1975 and NCI-H1299, (lung cancer; ATCC). Cells were routinely tested free of mycoplasma (MycoAlert mycoplasma detection kit, LONZA, Rockland, ME, USA) and validated by STR (Short Tandem Repeat) DNA profiling (BMR Genomics srl, PD). Cells were grown following supplier indication, in a fully humidified atmosphere of 5% CO2/95% air. All the reagents were purchased from Sigma-Aldrich (St. Louis, MO), if not otherwise specified.

T1 sequence (Q9HC98 whole entry): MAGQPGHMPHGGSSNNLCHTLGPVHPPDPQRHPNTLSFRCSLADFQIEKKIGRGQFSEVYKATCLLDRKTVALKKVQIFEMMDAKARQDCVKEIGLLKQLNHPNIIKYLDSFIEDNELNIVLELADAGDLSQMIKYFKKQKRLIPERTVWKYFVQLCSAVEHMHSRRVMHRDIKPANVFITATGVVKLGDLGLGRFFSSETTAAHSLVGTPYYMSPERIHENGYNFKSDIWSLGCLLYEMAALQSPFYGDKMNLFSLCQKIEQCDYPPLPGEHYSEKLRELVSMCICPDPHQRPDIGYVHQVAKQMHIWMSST

IC50 (NEK6 [1]; LANCE-Ultra, mean ± SEM of 4 independent experiments): 2.6 ± 0.05 µM
inhibition at 30 µM (NEK6 [1]; single concentration 30 µM, LANCE): > 70%
IC50 (NEK6 [2]): 49.8 µM
Compound: Nc1nc2c(c(=O)[nH]1)C(c1ccccc1)C1=C(N2)c2ccccc2C1=O (centres unmarked) [Compound 21, 6-amino-2-phenyl-5,7,9-triazatetracyclo[8.7.0.0^3,^8 0^11,^16]heptadeca-1(10),3(8),6,11,13,15 hexaene-4,17-dione]

Compound: N.N.[Cl][Pt][Cl] [cisplatin]
IC50 (PEO1 (ovary); PEO1, cisplatin alone, read-out: Cisplatin IC50 (mean ± SEM)): 7.9 ± 0.65 µM

Compound: CC(=O)O[C@H]1C(=O)[C@@]2(C)[C@H]([C@H](OC(=O)c3ccccc3)[C@]3(O)C[C@H](OC(=O)[C@H](O)[C@@H](NC(=O)c4ccccc4)c4ccccc4)C(C)=C1C3(C)C)[C@]1(OC(C)=O)CO[C@@H]1C[C@@H]2O [paclitaxel]
IC50 (PEO1 (ovary); Homo sapiens, PEO1, paclitaxel alone, read-out: IC50 paclitaxel): 0.007 ± 1e-06 µM
